For 14 compounds, GI50 and TGI results are on record in PubChem BioAssay (NCI).

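Interpolation was linear, between the two tested concentrations surrounding the appropriate level; five concentrations were tested over 48 hours in 96-well plates. GI50 is the concentration that inhibits growth by half. TGI: total growth inhibition.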

The first test has as its system 786-0 renal. The test can be described thus: NCI-60 cell line screen, 48 h.
Consider `CCn1c(-c2nonc2N)nc2c(C#CCN)ncc(OCCCN)c21`, for which the GI50 was over 25 µM and the TGI was over 25 µM.
In the case of `CN1CCN(Cc2ccc(C(=O)Nc3cncc(C#Cc4cnc(N)c5ccccc45)c3)cc2C(F)(F)F)CC1`, the GI50 was 1.78 µM and the TGI is 3.25 µM.
Taken in the same sequence, the figures for `N#CC(=C1SCS1)[N+](=O)[O-]` were 3.12 µM and 14 µM.
As to `O=C(NNc1nc2c(F)cccc2n2cccc12)c1cnccn1`, the GI50 was 0.426 µM and the TGI turned out to be 19.3 µM.
On the same counts, the results for `COc1cc(/C=C\[N+](=O)[O-])ccc1O` are 1.81 µM and 3.94 µM.
On the same counts, the results for `O=C(Nc1cccc(-n2ccc3c(NC(=O)c4ccccc4)nccc32)c1)c1cccc(C(F)(F)F)c1` are 0.0645 µM and 1.9 µM.
As for `C=CC(=O)N[C@H]1C=C(C)c2c(-c3cnc4ccccc4c3)c3c(N)ncnc3n2C1`, the GI50 was 5.14 µM and the TGI amounted to 36.8 µM.
On the same counts, the results for `C=C1C(O)C2CCC(C)(C)C(=O)C2=C(CC(C)C)C12CC2` (stereo not given) are over 100 µM and over 100 µM.
Taken in the same sequence, the figures for `CCOc1ccc(S(=O)(=O)/N=C2\C=C(SCC(=O)O)C(=O)c3ccccc32)cc1` were 17.4 µM and 36 µM.
On the same counts, the results for `C[C@@H]1CC[C@@H]2[C@@H]1[C@H](OC(=O)/C=C/c1ccccc1)[C@]1(c3ccccc3)C[C@@H](OC(=O)CO)[C@@]2(C)O1` are 11.7 µM and 29.3 µM.
For `O=C(c1ccc2ccccc2c1)c1c(C(F)(F)F)n([O-])c2cc(Cl)c(Cl)cc2[n+]1=O`, the GI50 was 1.69 µM and the TGI came out at 3.06 µM.
For the compound `O=C1/C(=C/c2ccc(F)cc2)CCOc2ccc([N+](=O)[O-])cc21`, the GI50 was 1.8 µM and the TGI is 3.5 µM.
On the same counts, the results for `O=C(CSc1nc2ccc([N+](=O)[O-])cc2[nH]1)Nc1ccc(F)c(Cl)c1` are 2.84 µM and 11.8 µM.
With `C=C1C(=O)O[C@H]2[C@H]1CC/C(CNC(=O)c1c[nH]c3ccc(F)cc13)=C\CC[C@@]1(C)O[C@@H]21`, the GI50 is 1.33 µM and the TGI worked out at 2.85 µM.

The subject of the next test is MDA-MB-435. Kind of test: NCI-60 cell line screen, 48 h.
As to `CCn1c(-c2nonc2N)nc2c(C#CCN)ncc(OCCCN)c21`, the GI50 was over 25 µM and the TGI is over 25 µM.
Regarding `CN1CCN(Cc2ccc(C(=O)Nc3cncc(C#Cc4cnc(N)c5ccccc45)c3)cc2C(F)(F)F)CC1`, the GI50 is 1.71 µM and the TGI is 3.12 µM.
On the same counts, the results for `N#CC(=C1SCS1)[N+](=O)[O-]` are 1.48 µM and 16.9 µM.
On the same counts, the results for `O=C(NNc1nc2c(F)cccc2n2cccc12)c1cnccn1` are 0.821 µM and 26.3 µM.
Taken in the same sequence, the figures for `COc1cc(/C=C\[N+](=O)[O-])ccc1O` were 2.16 µM and 5.98 µM.
Turning to `O=C(Nc1cccc(-n2ccc3c(NC(=O)c4ccccc4)nccc32)c1)c1cccc(C(F)(F)F)c1`, the GI50 was 0.0172 µM and the TGI stood at 0.043 µM.
On the same counts, the results for `C=CC(=O)N[C@H]1C=C(C)c2c(-c3cnc4ccccc4c3)c3c(N)ncnc3n2C1` are 17.8 µM and 67 µM.
On the same counts, the results for `C=C1C(O)C2CCC(C)(C)C(=O)C2=C(CC(C)C)C12CC2` (stereo not given) are 67.4 µM and over 100 µM.
Taken in the same sequence, the figures for `CCOc1ccc(S(=O)(=O)/N=C2\C=C(SCC(=O)O)C(=O)c3ccccc32)cc1` were 1.75 µM and 3.63 µM.
Turning to `C[C@@H]1CC[C@@H]2[C@@H]1[C@H](OC(=O)/C=C/c1ccccc1)[C@]1(c3ccccc3)C[C@@H](OC(=O)CO)[C@@]2(C)O1`, the GI50 was 14.9 µM and the TGI came out at 33.2 µM.
On the same counts, the results for `O=C(c1ccc2ccccc2c1)c1c(C(F)(F)F)n([O-])c2cc(Cl)c(Cl)cc2[n+]1=O` are 1.92 µM and 3.56 µM.
`O=C1/C(=C/c2ccc(F)cc2)CCOc2ccc([N+](=O)[O-])cc21`: the GI50 was 1.94 µM and the TGI was found to be 7.26 µM.
On the same counts, the results for `O=C(CSc1nc2ccc([N+](=O)[O-])cc2[nH]1)Nc1ccc(F)c(Cl)c1` are 2.6 µM and 12.6 µM.
Taken in the same sequence, the figures for `C=C1C(=O)O[C@H]2[C@H]1CC/C(CNC(=O)c1c[nH]c3ccc(F)cc13)=C\CC[C@@]1(C)O[C@@H]21` were 1.77 µM and 7.41 µM.

In a further test the test system is EKVX NSCLC. Kind of test: NCI-60 cell line screen, 48 h.
In the case of `CCn1c(-c2nonc2N)nc2c(C#CCN)ncc(OCCCN)c21`, the GI50 is over 25 µM and the TGI is over 25 µM.
For the compound `CN1CCN(Cc2ccc(C(=O)Nc3cncc(C#Cc4cnc(N)c5ccccc45)c3)cc2C(F)(F)F)CC1`, the GI50 is 1.99 µM and the TGI came out at 6.06 µM.
On to `N#CC(=C1SCS1)[N+](=O)[O-]`, for which the GI50 was 12.4 µM and the TGI came to 31.1 µM.
On the same counts, the results for `O=C(NNc1nc2c(F)cccc2n2cccc12)c1cnccn1` are 0.421 µM and 30 µM.
On the same counts, the results for `COc1cc(/C=C\[N+](=O)[O-])ccc1O` are 11.8 µM and 24.6 µM.
As for `O=C(Nc1cccc(-n2ccc3c(NC(=O)c4ccccc4)nccc32)c1)c1cccc(C(F)(F)F)c1`, the GI50 is 0.0715 µM and the TGI was over 100 µM.
Taken in the same sequence, the figures for `C=CC(=O)N[C@H]1C=C(C)c2c(-c3cnc4ccccc4c3)c3c(N)ncnc3n2C1` were 0.0785 µM and 42.6 µM.
On to `C=C1C(O)C2CCC(C)(C)C(=O)C2=C(CC(C)C)C12CC2` (stereo not given), for which the GI50 was 78.7 µM and the TGI was over 100 µM.
On the same counts, the results for `CCOc1ccc(S(=O)(=O)/N=C2\C=C(SCC(=O)O)C(=O)c3ccccc32)cc1` are 3.29 µM and 11.3 µM.
On the same counts, the results for `C[C@@H]1CC[C@@H]2[C@@H]1[C@H](OC(=O)/C=C/c1ccccc1)[C@]1(c3ccccc3)C[C@@H](OC(=O)CO)[C@@]2(C)O1` are 12.6 µM and 35.8 µM.
On the same counts, the results for `O=C(c1ccc2ccccc2c1)c1c(C(F)(F)F)n([O-])c2cc(Cl)c(Cl)cc2[n+]1=O` are 2.04 µM and 3.47 µM.
In the case of `O=C1/C(=C/c2ccc(F)cc2)CCOc2ccc([N+](=O)[O-])cc21`, the GI50 is 16.5 µM and the TGI is 30.5 µM.
With `O=C(CSc1nc2ccc([N+](=O)[O-])cc2[nH]1)Nc1ccc(F)c(Cl)c1`, the GI50 is 1.85 µM and the TGI was found to be 8.85 µM.
Take `C=C1C(=O)O[C@H]2[C@H]1CC/C(CNC(=O)c1c[nH]c3ccc(F)cc13)=C\CC[C@@]1(C)O[C@@H]21`: the GI50 was 1.68 µM and the TGI is 5.6 µM.

For the next test, the system named is MDA-MB-231 breast. Kind of test: NCI-60 cell line screen, 48 h.
In the case of `CCn1c(-c2nonc2N)nc2c(C#CCN)ncc(OCCCN)c21`, the GI50 is over 25 µM and the TGI was over 25 µM.
As to `CN1CCN(Cc2ccc(C(=O)Nc3cncc(C#Cc4cnc(N)c5ccccc45)c3)cc2C(F)(F)F)CC1`, the GI50 was 1.37 µM and the TGI turned out to be 2.87 µM.
Taken in the same sequence, the figures for `N#CC(=C1SCS1)[N+](=O)[O-]` were 4.94 µM and 20.4 µM.
Taken in the same sequence, the figures for `O=C(NNc1nc2c(F)cccc2n2cccc12)c1cnccn1` were 0.834 µM and 24.8 µM.
`COc1cc(/C=C\[N+](=O)[O-])ccc1O`: the GI50 is 2.6 µM and the TGI stood at 8.94 µM.
Taken in the same sequence, the figures for `O=C(Nc1cccc(-n2ccc3c(NC(=O)c4ccccc4)nccc32)c1)c1cccc(C(F)(F)F)c1` were 0.0533 µM and 1.29 µM.
On the same counts, the results for `C=CC(=O)N[C@H]1C=C(C)c2c(-c3cnc4ccccc4c3)c3c(N)ncnc3n2C1` are 9.57 µM and 27 µM.
Regarding `C=C1C(O)C2CCC(C)(C)C(=O)C2=C(CC(C)C)C12CC2` (stereo not given), the GI50 is 91.8 µM and the TGI was over 100 µM.
Taken in the same sequence, the figures for `CCOc1ccc(S(=O)(=O)/N=C2\C=C(SCC(=O)O)C(=O)c3ccccc32)cc1` were 2.84 µM and 12.2 µM.
Taken in the same sequence, the figures for `C[C@@H]1CC[C@@H]2[C@@H]1[C@H](OC(=O)/C=C/c1ccccc1)[C@]1(c3ccccc3)C[C@@H](OC(=O)CO)[C@@]2(C)O1` were 16.5 µM and 34.2 µM.
For `O=C(c1ccc2ccccc2c1)c1c(C(F)(F)F)n([O-])c2cc(Cl)c(Cl)cc2[n+]1=O`, the GI50 was 1.49 µM and the TGI stood at 2.82 µM.
Taken in the same sequence, the figures for `O=C1/C(=C/c2ccc(F)cc2)CCOc2ccc([N+](=O)[O-])cc21` were 13.3 µM and 31.9 µM.
Taken in the same sequence, the figures for `O=C(CSc1nc2ccc([N+](=O)[O-])cc2[nH]1)Nc1ccc(F)c(Cl)c1` were 1.91 µM and 5.59 µM.
Taken in the same sequence, the figures for `C=C1C(=O)O[C@H]2[C@H]1CC/C(CNC(=O)c1c[nH]c3ccc(F)cc13)=C\CC[C@@]1(C)O[C@@H]21` were 1.46 µM and 3.58 µM.

The test system of a further test is HCC-2998 colon. The test can be described thus: NCI-60 cell line screen, 48 h.
With `CCn1c(-c2nonc2N)nc2c(C#CCN)ncc(OCCCN)c21`, the GI50 is over 25 µM and the TGI is over 25 µM.
As to `CN1CCN(Cc2ccc(C(=O)Nc3cncc(C#Cc4cnc(N)c5ccccc45)c3)cc2C(F)(F)F)CC1`, the GI50 is 2.19 µM and the TGI worked out at 4.74 µM.
With `N#CC(=C1SCS1)[N+](=O)[O-]`, the GI50 was 4.26 µM and the TGI was found to be 16.6 µM.
Consider `O=C(NNc1nc2c(F)cccc2n2cccc12)c1cnccn1`, for which the GI50 is 0.867 µM and the TGI is 28.6 µM.
In the case of `COc1cc(/C=C\[N+](=O)[O-])ccc1O`, the GI50 was 1.98 µM and the TGI is 3.63 µM.
On the same counts, the results for `O=C(Nc1cccc(-n2ccc3c(NC(=O)c4ccccc4)nccc32)c1)c1cccc(C(F)(F)F)c1` are 0.0362 µM and over 66.3 µM.
Taken in the same sequence, the figures for `C=CC(=O)N[C@H]1C=C(C)c2c(-c3cnc4ccccc4c3)c3c(N)ncnc3n2C1` were 22.4 µM and 45 µM.
On the same counts, the results for `C=C1C(O)C2CCC(C)(C)C(=O)C2=C(CC(C)C)C12CC2` (stereo not given) are 16.6 µM and 65.8 µM.
As to `CCOc1ccc(S(=O)(=O)/N=C2\C=C(SCC(=O)O)C(=O)c3ccccc32)cc1`, the GI50 was 14.8 µM and the TGI turned out to be 28.2 µM.
On the same counts, the results for `C[C@@H]1CC[C@@H]2[C@@H]1[C@H](OC(=O)/C=C/c1ccccc1)[C@]1(c3ccccc3)C[C@@H](OC(=O)CO)[C@@]2(C)O1` are 14.6 µM and 29 µM.
In the case of `O=C(c1ccc2ccccc2c1)c1c(C(F)(F)F)n([O-])c2cc(Cl)c(Cl)cc2[n+]1=O`, the GI50 is 1.48 µM and the TGI was determined as 2.8 µM.
`O=C1/C(=C/c2ccc(F)cc2)CCOc2ccc([N+](=O)[O-])cc21`: the GI50 is 2.04 µM and the TGI was 4.75 µM.
For the compound `O=C(CSc1nc2ccc([N+](=O)[O-])cc2[nH]1)Nc1ccc(F)c(Cl)c1`, the GI50 is 2.95 µM and the TGI was 11.8 µM.
On to `C=C1C(=O)O[C@H]2[C@H]1CC/C(CNC(=O)c1c[nH]c3ccc(F)cc13)=C\CC[C@@]1(C)O[C@@H]21`, for which the GI50 is 1.84 µM and the TGI is 3.44 µM.
